Experimental findings from paper PMC12903857 are described below.

The target of experiment [1] is T1, 14-3-3σ/C-RAF (Homo sapiens, UniProt P31947). Put plainly: cell-based.
Target sequence in this assay (P31947 whole entry): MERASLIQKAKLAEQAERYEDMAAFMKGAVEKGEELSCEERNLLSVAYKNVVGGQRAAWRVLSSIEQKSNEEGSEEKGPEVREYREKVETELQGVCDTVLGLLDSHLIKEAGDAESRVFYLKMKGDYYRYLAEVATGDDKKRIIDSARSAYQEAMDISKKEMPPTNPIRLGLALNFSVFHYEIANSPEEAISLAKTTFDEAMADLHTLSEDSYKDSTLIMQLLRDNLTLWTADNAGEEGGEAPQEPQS
Target sequence in this assay (P04049 whole entry partner): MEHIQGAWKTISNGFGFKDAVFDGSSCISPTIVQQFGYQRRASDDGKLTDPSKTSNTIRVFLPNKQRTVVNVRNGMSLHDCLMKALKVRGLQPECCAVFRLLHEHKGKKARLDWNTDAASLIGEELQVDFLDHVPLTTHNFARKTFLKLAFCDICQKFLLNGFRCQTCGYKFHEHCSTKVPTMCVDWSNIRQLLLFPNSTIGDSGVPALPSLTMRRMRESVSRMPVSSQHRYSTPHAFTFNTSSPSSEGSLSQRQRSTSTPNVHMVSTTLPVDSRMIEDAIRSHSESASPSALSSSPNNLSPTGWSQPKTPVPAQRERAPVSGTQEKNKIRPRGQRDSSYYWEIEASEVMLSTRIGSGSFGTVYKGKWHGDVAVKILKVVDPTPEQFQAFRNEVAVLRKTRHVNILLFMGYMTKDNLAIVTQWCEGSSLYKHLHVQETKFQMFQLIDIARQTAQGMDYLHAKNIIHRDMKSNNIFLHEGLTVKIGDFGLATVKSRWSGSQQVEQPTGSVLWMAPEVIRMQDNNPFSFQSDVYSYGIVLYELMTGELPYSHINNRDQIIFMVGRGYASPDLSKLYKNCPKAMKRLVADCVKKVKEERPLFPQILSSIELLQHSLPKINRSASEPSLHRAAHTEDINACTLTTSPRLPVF
The target of a further experiment is 14-3-3σ/A-RAF (Homo sapiens, UniProt P31947).
The subject of experiment [2] is pERK. Put plainly: Lumit immunoassay for pERK levels in HEK293T cells. The class given is cell-based. The note with it: Homo sapiens, HEK-293T; HEK293T, 14-3-3σ and C-RAF transfected, 24 h, EGF stimulation.
Experiment [3] addresses T2, 14-3-3σ/C-RAF259 (Homo sapiens, UniProt P31947). The experiment is described as follows: Fluorescence anisotropy (FA) compound titration. The class given is binding. The note with it: 10 nM C-RAF259-FAM 10-mer, 5 μΜ 14-3-3σ, overnight; read-out: Compound titrations EC50 value C-RAF259. Background: Fluorescence polarisation rises when a labelled molecule tumbles more slowly, as on binding a larger partner.

Experiment [4] concerns the target T2, 14-3-3σ/C-RAF259. The experiment is described as follows: FA compound titration follow-up from selectivity panel.
The next experiment deals with A-RAF/C-RAF. Put plainly: NanoBRET for heterodimer formation A-RAF/C-RAF. (BRET reads energy transfer from a luciferase to a nearby fluorophore.)
Experiment [5] relates to pERK. The experiment is described as follows: Lumit immunoassay for pERK with 14-3-3 C38N mutant. The experiment is classed as cell-based. The note with it: HEK293T.
A further experiment concerns C-RAF/C-RAF. The note with it: with N-RAS Q61L; 100% = DMSO mBU.
The next experiment deals with 14-3-3σ/B-RAF (Homo sapiens, UniProt P31947).
The test system of experiment [6] is 80 peptides representing a diverse set of 14-3-3 clients. The experiment is described as follows: FA selectivity panel, single point. Particulars: 10.5 μM compound, 100 nM client peptides, overnight; hit = change in anisotropy of more than 15 units.
Another experiment addresses 14-3-3σ/TSC2 (Homo sapiens, UniProt P31947). Put plainly: FA compound titration follow-up from selectivity panel.
The subject of a further experiment is N-RAS Q61L/C-RAF. Particulars: HEK293T; 100% = DMSO mBU, 0% = N-RAS/C-RAF R89L.
Experiment [7] has as its target T1, 14-3-3σ/C-RAF.
Target sequence in this assay (P31947 whole entry, other chains not shown): as the sequence (P31947 whole entry) above
The target in a further experiment is 14-3-3σ/KC1A (Homo sapiens, UniProt P31947). Put plainly: FA compound titration follow-up from selectivity panel.
In a further experiment the test system is B-RAF/C-RAF. The experiment is described as follows: NanoBRET for heterodimer formation B-RAF/C-RAF.
The target of another experiment is 14-3-3σ/TAZ (Homo sapiens, UniProt P31947). The experiment is described as follows: FA compound titration follow-up from selectivity panel.
A further experiment has as its target 14-3-3σ/SOS1 (Homo sapiens, UniProt P31947). Described as above.
[8] abbreviates: 14-3-3σ covalently bound to compound, Replicate 1 and 2.

Values joined by “and” are separate entries in the source; they are usually repeats but may differ in a detail not shown here. Identical values can stand only once.

14-3-3σ/B-RAF, sequence (P31947 whole entry, other chains not shown): as the sequence (P31947 whole entry) above
14-3-3σ/A-RAF, sequence (P31947 whole entry, other chains not shown): as the sequence (P31947 whole entry) above
T2 sequence (P31947 whole entry, other chains not shown): as the sequence (P31947 whole entry) above
14-3-3σ/SOS1, sequence (P31947 whole entry, other chains not shown): as the sequence (P31947 whole entry) above
14-3-3σ/TAZ, sequence (P31947 whole entry, other chains not shown): as the sequence (P31947 whole entry) above
14-3-3σ/KC1A, sequence (P31947 whole entry, other chains not shown): as the sequence (P31947 whole entry) above
14-3-3σ/TSC2, sequence (P31947 whole entry, other chains not shown): as the sequence (P31947 whole entry) above

Broadly, the IC50 is the concentration that inhibits the measured activity by half. High values mean weaker potency, low ones greater potency. On to `O=C(CCl)NCC1CCN(S(=O)(=O)c2ccc(I)cc2)CC1` [Compound 23], for which the EC50 on 14-3-3σ/C-RAF [1] is 0.18 µM; on 14-3-3σ/C-RAF259 [3], 1 ± 0.5 µM; on 14-3-3σ/C-RAF259 [4], 5.1 µM; at 14-3-3σ/TSC2 it was 19.2 µM; at 14-3-3σ/KC1A it was 38.1 µM; at 14-3-3σ/TAZ, 11.7 µM. The same compound displayed an EC50 on 14-3-3σ/SOS1 of 24.2 µM. Moreover, at 14-3-3σ/A-RAF (setting [8]), the “ka, single replicates, A-RAF 12-mer” value is 1.25e+07 M⁻¹ s⁻¹ and 1.02e+07 M⁻¹ s⁻¹. Besides, the “kd, single replicates, A-RAF 12-mer” value at 14-3-3σ/A-RAF (setting [8]) is 0.0189 s⁻¹ and 0.0196 s⁻¹. The “affinity increase, A-RAF” value on 14-3-3σ/A-RAF (vs binary interaction) stood at 1000 fold. In the experiment on pERK [2], this compound showed an IC50 of 4.4 µM. In addition, the “decrease of the A-RAF/C-RAF interaction” value in the experiment with A-RAF/C-RAF is 23%. For the same compound, the “effect on pERK with the C38N mutant” value in the experiment on pERK [5] is on record as “No effect”. Moreover, in the experiment on C-RAF/C-RAF, the “decrease in C-RAF homodimer formation” value came to 47%. Further, the “ka, single replicates, B-RAF 12-mer” value on 14-3-3σ/B-RAF (setting [8]) was 9.53e+06 M⁻¹ s⁻¹ and 8.53e+06 M⁻¹ s⁻¹. The “kd, single replicates, B-RAF 12-mer” value at 14-3-3σ/B-RAF (setting [8]) is 0.0572 s⁻¹ and 0.0569 s⁻¹. The “affinity increase, B-RAF” value at 14-3-3σ/B-RAF (vs binary interaction) is 400 fold. In [6], the “clients emerged as hits” value is “four”. Also, the “reduction of the N-RAS Q61L/C-RAF interaction” value in the experiment on N-RAS Q61L/C-RAF is on record as 75%. On 14-3-3σ/C-RAF [7] (setting [8]), the “ka, single replicates, C-RAF 12-mer” value is 1.12e+07 M⁻¹ s⁻¹ and 1.09e+07 M⁻¹ s⁻¹. Also, the “kd, single replicates, C-RAF 12-mer” value at 14-3-3σ/C-RAF [7] (setting [8]) is 0.0131 s⁻¹ and 0.0133 s⁻¹. At 14-3-3σ/C-RAF [7] (vs binary interaction), the “affinity increase, C-RAF” value is recorded as 2000 fold. The “decrease of the B-RAF/C-RAF dimer” value in the experiment with B-RAF/C-RAF was 15%.
